Results from paper PMC6105164 (Cancer Chemotherapy and Pharmacology, 2018).

Legend:
clinical = details: human, in vivo; for AUC(0-t): AUC12h
Method: This trial was a multiple-ascending dose trial in 28-day cycles. The doses used were 100, 200, 400, 600, 800, and 1000 mg. The initial dose (100 mg) was determined in accordance with the International Conference on Harmonisation of Technical Requirements for Registration of Pharmaceuticals for Human Use-S9 guideline. […] Patients received only the morning dose on day 1 for pharmacokinetics evaluation. […] Grades were determined according to the National Cancer Institute Common Terminology Criteria for Adverse Events (NCI-CTCAE v.4.0).
Blood samples were collected 10 times on day 1 (before drug administration, and 0.5-, 1-, 1.5-, 2-, 4-, 6-, 8-, 12-, and 24-h post-administration), once on days 4, 7, and 14, and 9 times on day 21 (before morning dose, and 0.5, 1, 1.5, 2, 4, 6, 8, and 12 h after morning dose but before evening dose). Urine samples were collected from patients who received 200, 600, or 1000 mg on day 1 (before drug administration, and 0–6-, 6–12-, 12–24-h post-administration).

RAS-mutated patients = details: previous phase I/II trials in the USA; cited from earlier work

With `CC(C)=CCC/C(C)=C/CC/C(C)=C/CSc1ccccc1C(=O)O` [Salirasib, S-trans, trans-farnesylthiosalicylic acid] as the compound, how does the “dose at which Cmax and AUCinf were maximal” value (clinical) read?
Its value is 800 mg.

What about the “dose proportionality of Cmax and AUC12h (power model analyses)” value (clinical) of the same compound?
The value was “increased proportionally and in dose-dependent manners”.

And the half-life (clinical)?
Its half-life is 3.5 to 9.11 h.

What about the “mean Cmax across dose groups” value (clinical) of the same compound?
The value was 1180 to 4870 ng/mL.

And the “time to Cmax, median, across dose groups” value (clinical)?
Its value is 2.10 to 4.05 h.

What about the AUC(0-inf) (clinical; 100 mg) of the same compound?
The AUC(0-inf) was 4970 ± 1600 ng·h/mL.

And the “CL/F, mean ± SD” value (clinical; 100 mg)?
Its value is 21.6 ± 6.80 L/h.

And the half-life (clinical; 100 mg)?
Its half-life is 3.81 ± 0.25 h.

What about the “tmax, Range” value (clinical; 100 mg) of the same compound?
Its value is 1.52 to 3.88 h.

What about the AUC(0-t) (clinical; 100 mg, mean ± SD) of the same compound?
The AUC(0-t) was 4700 ± 1490 ng·h/mL.

And the Cmax (clinical; 100 mg, Cmax, mean ± SD)?
The Cmax was 1340 ± 473 ng/mL.

What about the “AUC12h, mean ± SD” value (clinical; 200 mg) of the same compound?
Its value is 10,500 ± 4450 ng h/mL.

What about the AUC(0-inf) (clinical; 200 mg) of the same compound?
The AUC(0-inf) was 11400 ng·h/mL.

And the “CL/F, mean ± SD” value (clinical; 200 mg)?
Its value is 19.1 ± 7.35 L/h.

And the “Cmax, mean ± SD” value (clinical; 200 mg)?
The value was 2830 ± 822 ng/mL.

What about the half-life (clinical; 200 mg) of the same compound?
Its half-life is 4.16 ± 1.13 h.

And the “tmax, Range” value (clinical; 200 mg)?
The value was 2.13 to 4.00 h.

What about the AUC(0-t) (clinical; 200 mg, mean ± SD) of the same compound?
The AUC(0-t) was 10400 ng·h/mL.

And the Cmax (clinical; 200 mg, Cmax, mean ± SD)?
The Cmax was 2610 ± 837 ng/mL.

What about the “AUC12h, mean ± SD” value (clinical; 400 mg) of the same compound?
The value was 14,800 ± 3520 ng h/mL.

What about the AUC(0-inf) (clinical; 400 mg) of the same compound?
Its AUC(0-inf) is 20300 ng·h/mL.

And the “CL/F, mean ± SD” value (clinical; 400 mg)?
The value was 20.1 ± 3.83 L/h.

And the “Cmax, mean ± SD” value (clinical; 400 mg)?
Its value is 3630 ± 876 ng/mL.

What about the half-life (clinical; 400 mg) of the same compound?
Its half-life is 4 ± 1.88 h.

What about the AUC(0-t) (clinical; 400 mg, mean ± SD) of the same compound?
The AUC(0-t) was 18000 ng·h/mL.

What about the Cmax (clinical; 400 mg, Cmax, mean ± SD) of the same compound?
Its Cmax is 3250 ± 1440 ng/mL.

What about the “AUC12h, mean ± SD” value (clinical; 600 mg) of the same compound?
The value was 18,700 ± 4710 ng h/mL.

And the AUC(0-inf) (clinical; 600 mg)?
Its AUC(0-inf) is 18500 ng·h/mL.

And the “CL/F, mean ± SD” value (clinical; 600 mg)?
Its value is 33.0 ± 5.25 L/h.

What about the “Cmax, mean ± SD” value (clinical; 600 mg) of the same compound?
The value was 4500 ± 1580 ng/mL.

What about the half-life (clinical; 600 mg) of the same compound?
Its half-life is 3.5 ± 0.39 h.

And the “tmax, Range” value (clinical; 600 mg)?
Its value is 1.42 to 4.00 h.

What about the AUC(0-t) (clinical; 600 mg, mean ± SD) of the same compound?
Its AUC(0-t) is 16900 ng·h/mL.

And the Cmax (clinical; 600 mg, Cmax, mean ± SD)?
Its Cmax is 4870 ± 2390 ng/mL.

What about the Tmax (clinical; 600 mg, Median) of the same compound?
The Tmax was 2.1 h.

And the Tmax (clinical; 600 mg, Range)?
Its Tmax is 2 to 4 h.

What about the “AUC12h, mean ± SD” value (clinical; 800 mg) of the same compound?
Its value is 16,300 ± 6240 ng h/mL.

What about the AUC(0-inf) (clinical; 800 mg) of the same compound?
The AUC(0-inf) was 26600 ng·h/mL.

And the “CL/F, mean ± SD” value (clinical; 800 mg)?
Its value is 30.7 ± 4.55 L/h.

And the “Cmax, mean ± SD” value (clinical; 800 mg)?
The value was 4790 ± 1100 ng/mL.

And the “dose proportionality of Cmax and AUCinf (power model analyses)” value (clinical; 800 mg)?
The value was “increased proportionally until 400 mg in dose-dependent manners”.

And the half-life (clinical; 800 mg)?
Its half-life is 3.67 ± 0.81 h.

And the “tmax, Range” value (clinical; 800 mg)?
Its value is 2.02 to 5.93 h.

What about the AUC(0-t) (clinical; 800 mg, mean ± SD) of the same compound?
Its AUC(0-t) is 23800 ng·h/mL.

What about the Cmax (clinical; 800 mg, Cmax, mean ± SD) of the same compound?
Its Cmax is 3840 ± 2090 ng/mL.

And the Tmax (clinical; 800 mg, Median)?
The Tmax was 2.98 h.

And the Tmax (clinical; 800 mg, Range)?
Its Tmax is 1.42 to 5.98 h.

And the “AUC12h, mean ± SD” value (clinical; 1000 mg)?
The value was 15,700 ± 9100 ng h/mL.

What about the “Cmax, mean ± SD” value (clinical; 1000 mg) of the same compound?
The value was 4990 ± 1210 ng/mL.

What about the half-life (clinical; 1000 mg) of the same compound?
Its half-life is 9.11 ± 9.79 h.

What about the AUC(0-t) (clinical; 1000 mg, mean ± SD) of the same compound?
Its AUC(0-t) is 22400 ng·h/mL.

And the Cmax (clinical; 1000 mg, Cmax, mean ± SD)?
Its Cmax is 2630 ± 1450 ng/mL.

And the Tmax (clinical; 1000 mg, Range)?
The Tmax was 2 to 3.97 h.

What about the Cmax (clinical; mean Cmax across dose groups) of the same compound?
The Cmax was 1340 to 4990 ng/mL.

And the AUC(0-t) (clinical; po, 100 mg, mean ± SD)?
Its AUC(0-t) is 4610 ng·h/mL.

What about the Cmax (clinical; po, 100 mg, Cmax, mean ± SD) of the same compound?
Its Cmax is 1180 ng/mL.

What about the AUC(0-inf) (clinical; po, 1000 mg) of the same compound?
Its AUC(0-inf) is 26900 ng·h/mL.

What about the “efficacy in RAS-mutated patients” value (RAS-mutated patients) of the same compound?
The value was “not conclusive”.

And the tolerability (RAS-mutated patients)?
Its tolerability is “good tolerability”.
